We go through 26 compounds from patent publication US5736545A, “Azolyl piperazinyl phenyl oxazolidinone antimicrobials” (Pharmacia & Upjohn Company, priority 1997, dated 1998).

The subject of one assay is S. aureus UC ® 9213. Description: In vitro MIC by agar dilution (NCCLS), Gram-positive bacteria: S. aureus. It is filed as cell-based, Staphylococcus aureus. To be noted: for MIC: Staphylococcus aureus. The text has this: The oxazolidinone antibacterial agents of this invention have useful activity against a variety of organisms. The in vitro activity of compounds of this invention can be assessed by standard testing procedures such as the determination of minimum inhibitory concentration (MIC) by agar dilution as described in "Methods for Dilution Antimicrobial Susceptibility Tests for Bacteria That Grow Aerobically" (MFT) published January 1983 by the National Committee for Clinical Laboratory Standards, 771 East Lancaster Avenue, Villanova, Pa. 19084, USA. The activity of selected compounds of this invention against Staphylococcus aureus and Streptococcus pneumoniae are shown in Table 1.
^a Minimum inhibitory concentration: lowest concentration of drug
(μg/mL) that inhibits visible growth of the organism.
A general note: Agar dilution tests growth on a series of plates holding different concentrations.

The test system of another assay is E. Faecalis UC ® 9217. The experiment in a line: In vitro MIC by agar dilution (NCCLS), Gram-positive bacteria: E. faecalis. It is filed as cell-based. The following applies: for MIC: Enterococcus faecalis.
Setting [1] is: UC9213, S. aureus UC 9213, agar dilution, read-out: MIC (minimum inhibitory concentration: lowest concentration of drug that inhibits visible growth of the organism).
Setting [2] is: UC9217, E. Faecalis UC 9217, agar dilution, read-out: MIC (minimum inhibitory concentration: lowest concentration of drug that inhibits visible growth of the organism).

Converted amounts (≈) assume the structure as drawn. Like-named read-outs stand apart in the source and are kept apart here. Where only a bound is given, the exact number is not on record here.

As for `CC(=O)NC[C@H]1CN(c2ccc(N3CCN(c4nc5ccccc5s4)CC3)c(F)c2)C(=O)O1` [Example 1, (S)--N--[[3-[4-[4-(2-Benzothiazolyl)-1-piperazinyl]-3-fluorophenyl]-2-oxo-5-oxazolidinyl]methyl]acetamide], the results for the MIC with S. aureus UC ® 9213 (setting [1]) and in the assay with E. Faecalis UC ® 9217 (setting [2]) were 4 µg/mL (≈ 8.52 µM) and 2 µg/mL (≈ 4.26 µM), respectively.

Take `CC(=O)NC[C@H]1CN(c2ccc(N3CCN(c4ncc([N+](=O)[O-])s4)CC3)c(F)c2)C(=O)O1` [Example 2, (S)--N--[[3-[3-Fluoro-4-[4-(5-nitrothiazol-2-yl)-1-piperazinyl]phenyl]-2-oxo-5-oxazolidinyl]methyl]acetamide]: the MIC with S. aureus UC ® 9213 (setting [1]) and with E. Faecalis UC ® 9217 (setting [2]) was 2 µg/mL (≈ 4.31 µM) each time.

As to `CC(=O)NC[C@H]1CN(c2ccc(N3CCN(c4nc5ccccc5o4)CC3)c(F)c2)C(=O)O1` [Example 3, (S)--N--[[3-[4-[4-(2-Benzoxazolyl)-1-piperazinyl]-3-fluorophenyl]-2-oxo-5-oxazolidinyl]methyl]acetamide], the MIC in the assay on S. aureus UC ® 9213 (setting [1]) and with E. Faecalis UC ® 9217 (setting [2]) was 2 µg/mL (≈ 4.41 µM) throughout.

For the compound `CC(=O)NC[C@H]1CN(c2ccc(N3CCN(c4nc5cc([N+](=O)[O-])ccc5o4)CC3)c(F)c2)C(=O)O1` [Example 4, (S)--N--[[3-[3-Fluoro-4-[4-(5-nitrobenzoxazol-2-yl)-1-piperazinyl]phenyl]-2-oxo-5-oxazolidinyl]methyl]acetamide], the MIC in the assay with S. aureus UC ® 9213 (setting [1]) and with E. Faecalis UC ® 9217 (setting [2]) was 1 µg/mL (≈ 2.01 µM) throughout.

`CC(=O)NC[C@H]1CN(c2ccc(N3CCN(c4nccs4)CC3)c(F)c2)C(=O)O1` [Example 5, (S)--N--[[3-[3-Fluoro-4-[4-(2-thiazolyl)-1-piperazinyl]phenyl]-2-oxo-5-oxazolidinyl]methyl]acetamide]: the MIC in the assay with S. aureus UC ® 9213 (setting [1]) is 2 µg/mL (≈ 4.77 µM); in the assay with E. Faecalis UC ® 9217 (setting [2]) it was 1 µg/mL (≈ 2.38 µM).

`CC(=O)NC[C@H]1CN(c2ccc(N3CCN(c4nc5ccc([N+](=O)[O-])cc5s4)CC3)c(F)c2)C(=O)O1` [Example 6, (S)--N--[[3-[3-Fluoro-4-[4-(6-nitrobenzothiazol-2-yl)-1-piperazinyl]phenyl]-2-oxo-5-oxazolidinyl]methyl]acetamide]: the MIC in the assay on S. aureus UC ® 9213 (setting [1]) and in the assay on E. Faecalis UC ® 9217 (setting [2]) was 0.5 µg/mL (≈ 0.972 µM) in each case.

As for `CC(=O)NC[C@H]1CN(c2ccc(N3CCN(c4nc5cc(F)ccc5o4)CC3)c(F)c2)C(=O)O1` [Example 7, (S)--N--[[3-[3-Fluoro-4-[4-(5-fluorobenzoxazol-2-yl)-1-piperazinyl]phenyl]-2-oxo-5-oxazolidinyl]methyl]acetamide], the MIC in the assay on S. aureus UC ® 9213 (setting [1]) and in the assay with E. Faecalis UC ® 9217 (setting [2]) was 4 µg/mL (≈ 8.48 µM) each time.

`CC(=O)NC[C@H]1CN(c2ccc(N3CCN(c4nc5ccc(F)cc5o4)CC3)c(F)c2)C(=O)O1` [Example 8, (S)--N--[[3-[3-Fluoro-4-[4-(6-fluorobenzoxazol-2-yl)-1-piperazinyl]phenyl]-2-oxo-5-oxazolidinyl]methyl]acetamide]: the MIC turned out to be 2 µg/mL (≈ 4.24 µM) in the assay with S. aureus UC ® 9213 (setting [1]) and 1 µg/mL (≈ 2.12 µM) with E. Faecalis UC ® 9217 (setting [2]).

For the compound `CC(=O)NC[C@H]1CN(c2ccc(N3CCN(c4nc5cccc(F)c5o4)CC3)c(F)c2)C(=O)O1` [Example 9, (S)--N--[[3-[3-Fluoro-4-[4-(7-fluorobenzoxazol-2-yl)-1-piperazinyl]phenyl]-2-oxo-5-oxazolidinyl]methyl]acetamide], the MIC in the assay with S. aureus UC ® 9213 (setting [1]) and in the assay on E. Faecalis UC ® 9217 (setting [2]) was 1 µg/mL (≈ 2.12 µM) each time.

As for `CC(=O)NC[C@H]1CN(c2ccc(N3CCN(c4nc5ccc(F)c(F)c5o4)CC3)c(F)c2)C(=O)O1` [Example 10, (S)--N--[[3-[3-Fluoro-4-[4-(6,7-difluorobenzoxazol-2-yl)-1-piperazinyl]phenyl]-2-oxo-5-oxazolidinyl]methyl]acetamide], the MIC in the assay with S. aureus UC ® 9213 (setting [1]) and in the assay on E. Faecalis UC ® 9217 (setting [2]) was 2 µg/mL (≈ 4.09 µM) each time.

For `CC(=O)NC[C@H]1CN(c2ccc(N3CCN(C4=NCCS4)CC3)c(F)c2)C(=O)O1` [Example 11, (S)--N--[[3-[4-[4-(4,5-Dihydro-2-thiazolyl)-1-piperazinyl]-3-fluorophenyl]-2-oxo-5-oxazolidinyl]methyl]acetamide], the MIC with S. aureus UC ® 9213 (setting [1]) came out at 2 µg/mL (≈ 4.74 µM); with E. Faecalis UC ® 9217 (setting [2]), 1 µg/mL (≈ 2.37 µM).

In the case of `CC(=O)NC[C@H]1CN(c2ccc(N3CCN(C4=NCCO4)CC3)c(F)c2)C(=O)O1` [Example 12, (S)--N--[[3-[4-[4-(4,5-Dihydro-2-oxazolyl)-1-piperazinyl]-3-fluorophenyl]-2-oxo-5-oxazolidinyl]methyl]acetamide], the values for the MIC in the assay on S. aureus UC ® 9213 (setting [1]) and with E. Faecalis UC ® 9217 (setting [2]) were 32 µg/mL (≈ 78.9 µM) and 4 µg/mL (≈ 9.87 µM), respectively.

For the compound `CC(=O)NC[C@H]1CN(c2ccc(N3CCN(c4nnnn4-c4ccccc4)CC3)c(F)c2)C(=O)O1` [Example 13], the MIC with S. aureus UC ® 9213 (setting [1]) and in the assay on E. Faecalis UC ® 9217 (setting [2]) was 4 µg/mL (≈ 8.32 µM) throughout.

In the case of `CC(=O)NC[C@H]1CN(c2ccc(N3CCN(C4=NC(=O)CS4)CC3)c(F)c2)C(=O)O1` [Example 15], the MIC with S. aureus UC ® 9213 (setting [1]) was 2 µg/mL (≈ 4.59 µM); with E. Faecalis UC ® 9217 (setting [2]), 1 µg/mL (≈ 2.3 µM).

Turning to `CC(=O)NC[C@H]1CN(c2ccc(N3CCN(c4nncs4)CC3)c(F)c2)C(=O)O1` [Example 16, (S)--N--[[3-[3-Fluoro-4-[4-(1,3,4-thiadiazol-2-yl)-1-piperazinyl]phenyl]-2-oxo-5-oxazolidinyl]mehtyl]acetamide], the MIC in the assay with S. aureus UC ® 9213 (setting [1]) and with E. Faecalis UC ® 9217 (setting [2]) was 1 µg/mL (≈ 2.38 µM) in each case.

With `CC(=O)NC[C@H]1CN(c2ccc(N3CCN(c4nnc(C)s4)CC3)c(F)c2)C(=O)O1` [Example 17, (S)--N--[[3-[3-Fluoro-4-[4-(5-methyl-1,3,4-thiadiazol-2-yl)-1-piperazinyl]phenyl]-2-oxo-5-oxazolidinyl]methyl]acetamide], the MIC in the assay with S. aureus UC ® 9213 (setting [1]) was found to be 0.5 µg/mL (≈ 1.15 µM); in the assay with E. Faecalis UC ® 9217 (setting [2]), 1 µg/mL (≈ 2.3 µM).

Regarding `CC(=O)NC[C@H]1CN(c2ccc(N3CCN(c4nnc(N)s4)CC3)c(F)c2)C(=O)O1` [Example 18], the MIC with S. aureus UC ® 9213 (setting [1]) and in the assay with E. Faecalis UC ® 9217 (setting [2]) was 2 µg/mL (≈ 4.59 µM) throughout.

`CCOC(=O)c1nnc(N2CCN(c3ccc(N4C[C@H](CNC(C)=O)OC4=O)cc3F)CC2)s1` [Example 19, (S)--N--[[3-[4-[4-(5-Ethoxycarbonyl-1,3,4-thiadiazol-2-yl)-3-fluoro-1-piperazinyl]phenyl]-2-oxo-5-oxazolidinyl]methyl]acetamide]: the MIC in the assay with S. aureus UC ® 9213 (setting [1]) was 4 µg/mL (≈ 8.12 µM); in the assay on E. Faecalis UC ® 9217 (setting [2]), 2 µg/mL (≈ 4.06 µM).

Regarding `CC(=O)NC[C@H]1CN(c2ccc(N3CCN(c4nnc(C(F)(F)F)s4)CC3)c(F)c2)C(=O)O1` [Example 20, (S)--N--[[3-[3-Fluoro-4-[4-(5-trifluoromethyl-1,3,4-thiadiazol-2-yl)-1-piperazinyl]phenyl]-2-oxo-5-oxazolidinyl]methyl]acetamide], the figures for the MIC with S. aureus UC ® 9213 (setting [1]) and in the assay with E. Faecalis UC ® 9217 (setting [2]) were 4 µg/mL (≈ 8.19 µM) and 2 µg/mL (≈ 4.09 µM), respectively.

For `CC(=O)NC[C@H]1CN(c2ccc(N3CCN(c4n[nH]c(=O)s4)CC3)c(F)c2)C(=O)O1` [Example 24, (S)--N--[[3-[3-Fluoro-4-[4-(5-oxo-1,3,4-thiadiazol-2-yl)-1-piperazinyl]phenyl]-2-oxo-5-oxazolidinyl]methyl]acetamide], the MIC in the assay on S. aureus UC ® 9213 (setting [1]) and in the assay with E. Faecalis UC ® 9217 (setting [2]) was 1 µg/mL (≈ 2.29 µM) each time.

As for `CC(=O)NC[C@H]1CN(c2ccc(N3CCN(c4nc(C)ns4)CC3)c(F)c2)C(=O)O1` [Example 25], the MIC was determined as 2 µg/mL (≈ 4.6 µM) with S. aureus UC ® 9213 (setting [1]) and 1 µg/mL (≈ 2.3 µM) in the assay with E. Faecalis UC ® 9217 (setting [2]).

Consider `CC(=O)NC[C@H]1CN(c2ccc(N3CCN(c4nc(=O)n(-c5ccccc5)s4)CC3)c(F)c2)C(=O)O1` [Example 26, (S)--N--[[3-[3-Fluoro-4-[4-(2-phenyl-3-oxo-1,2,4-thiadiazol-5-yl)-1-piperazinyl]phenyl]-2-oxo-5-oxazolidinyl]methyl]acetamide], for which the figures for the MIC in the assay with S. aureus UC ® 9213 (setting [1]) and in the assay on E. Faecalis UC ® 9217 (setting [2]) were 8 µg/mL (≈ 15.6 µM) and 4 µg/mL (≈ 7.8 µM), respectively.

On to `CC(=O)NC[C@H]1CN(c2ccc(N3CCN(c4nnc(C)o4)CC3)c(F)c2)C(=O)O1` [Example 27, (S)--N--[[3-[3-Fluoro-4-[4-(5-methyl-1,3,4-oxadiazol-2-yl)-1-piperazinyl]phenyl]-2-oxo-5-oxazolidinyl]methyl]acetamide], for which the MIC in the assay with S. aureus UC ® 9213 (setting [1]) and with E. Faecalis UC ® 9217 (setting [2]) was 4 µg/mL (≈ 9.56 µM) each time.

As for `CN[C@H](CC(C)C)C(=O)N[C@H]1C(=O)N[C@@H](CC(N)=O)C(=O)N[C@H]2C(=O)N[C@H]3C(=O)N[C@H](C(=O)N[C@H](C(=O)O)c4cc(O)cc(O)c4-c4cc3ccc4O)[C@H](O)c3ccc(c(Cl)c3)Oc3cc2cc(c3O[C@@H]2O[C@H](CO)[C@@H](O)[C@H](O)[C@H]2O[C@H]2C[C@](C)(N)[C@H](O)[C@H](C)O2)Oc2ccc(cc2Cl)[C@H]1O` [Vancomycin, reference compound], the MIC with S. aureus UC ® 9213 (UC9213, read-out: MIC (minimum inhibitory concentration: lowest concentration of drug that inhibits visible growth of the organism)) was found to be 1 µg/mL (≈ 0.69 µM); with E. Faecalis UC ® 9217 (UC9217, read-out: MIC (minimum inhibitory concentration: lowest concentration of drug that inhibits visible growth of the organism)) it was 4 µg/mL (≈ 2.76 µM).

With `CC(=O)NC[C@H]1CN(c2ccc(N3CCNCC3)c(F)c2)C(=O)O1` [XLII, reference compound], the values for the MIC in the assay with S. aureus UC ® 9213 (setting [1]) and in the assay with E. Faecalis UC ® 9217 (setting [2]) were over 64 µg/mL and 32 µg/mL (≈ 95.1 µM), respectively.

As to “(S)--N--[[3-[4-[3-Fluoro-4-[(methyl-5-tetrazolyl)-1-piperazinyl]phenyl]-2-oxo-5-oxazolidinyl]methyl]acetamide [Example 14]”, the “MIC (minimum inhibitory concentration: lowest concentration of drug that inhibits visible growth of the organism)” value was 4 µg/mL in the assay on S. aureus UC ® 9213 (S. aureus UC 9213, agar dilution) and 2 µg/mL against E. Faecalis UC ® 9217 (E. Faecalis UC 9217, agar dilution).
